# Measured values taken from PMC6934184, “Selective DNA-PKcs inhibition extends the therapeutic index of localized radiotherapy and chemotherapy” (The Journal of Clinical Investigation, 2019).
# Molecular target: T1, MAP3K2 (MEKK2) (Homo sapiens, UniProt Q9Y2U5)
# T1 construct: purchased Thermo Fisher Scientific (Life Technologies) SelectScreen
# Test: SelectScreen LanthaScreen
# Format: binding
# Conditions: read-out: % displacement
# In short: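 SelectScreen broad panel; activity (Z'LYTE, Adapta) plus binding formats. ATP: Km app for CSF1R Z'LYTE; 10 for CAMK1 Adapta. Readout = % per kinase.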
# T1 sequence (Q9Y2U5 whole entry): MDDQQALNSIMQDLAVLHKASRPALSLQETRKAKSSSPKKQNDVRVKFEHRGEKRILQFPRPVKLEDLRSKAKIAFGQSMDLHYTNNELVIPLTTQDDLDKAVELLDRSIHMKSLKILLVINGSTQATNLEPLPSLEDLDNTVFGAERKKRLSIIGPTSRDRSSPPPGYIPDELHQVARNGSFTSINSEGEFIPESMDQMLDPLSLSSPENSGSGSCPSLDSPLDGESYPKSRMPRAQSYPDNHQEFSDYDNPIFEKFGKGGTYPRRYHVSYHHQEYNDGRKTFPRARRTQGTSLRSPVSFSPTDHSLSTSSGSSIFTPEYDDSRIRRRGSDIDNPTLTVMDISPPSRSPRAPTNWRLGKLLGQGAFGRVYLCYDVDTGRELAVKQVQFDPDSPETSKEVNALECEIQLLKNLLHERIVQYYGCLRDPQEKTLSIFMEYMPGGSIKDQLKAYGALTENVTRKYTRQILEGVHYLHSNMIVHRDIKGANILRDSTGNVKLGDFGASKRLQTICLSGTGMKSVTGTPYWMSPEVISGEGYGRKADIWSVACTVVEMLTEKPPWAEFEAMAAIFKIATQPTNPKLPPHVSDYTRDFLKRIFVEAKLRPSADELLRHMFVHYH
smiles,measurement,value
CN(C(=O)CN1CCOCC1)c1ccc2sc3c(-c4cccc5c(=O)cc(N6CC7CCC(C6)O7)oc45)cccc3c2c1 [NU5455],inhibition at 1 µM,0.1%
